Measured values as given in patent US7754713B2, “4-benzimidazol-2-ylpyridazin-3-one derivatives” (Aventis Pharma S.A., priority 2004, dated 2010).

Tests used:
CDK2/Cyclin E = CDK2/Cyclin E (Homo sapiens, UniProt P24941); assay: CDK2/Cyclin E kinase flashplate assay (33P incorporation into biotinylated Rb peptide); assay type: biochemical; conditions: CDK2/Cyclin E 20 nM, ATP 1 μM, Rb peptide 10 μM, 30 minute at 30° C.
Method: Functional Measurements to Ascertain IC50 Values:
A 96-well streptavidin-coated flashplate is used to assay potency of compounds according to formula (I) against CDK2/Cyclin E kinase. To carry out the assay, biotinylated-Rb peptide substrate (Biotin-[…]-OH) is solubilized at 1 mM in kinase buffer (Hepes 50 mM, NaCl 1 mM, MgCl2 5 mM pH 7.5) as a stock solution conserved at −20° C. in aliquots of 110 μl. The day of the experiment, an aliquot of this solution is thawed and diluted to 14.3 μM in kinase buffer, containing 1 mM dithithreitol (DTT) added in the buffer extemporarily.
70 μl of this solution is added in each well of the flashplate in order to achieve a final concentration of 10 μM (100 μl reactionnal volume). […] 10 μl of each of these solutions (or 10 μl of buffer+DTT for controls) are transferred to the testplate wells in order to achieve 10 μM, 3.33 μM, 1.11 μM, 0.37 μM, 0.12 μM, 0.04 μM and 0.01 μM as final concentrations, 1% DMSO (vol/vol). In each well, 10 μl of a solution of a mix of ^33PγATP/ATP are added in order to achieve 1 μM final concentration and a total of 1 μCi. The kinase reaction is initiated by addition of 10 μl of a solution at 200 nM of CDK2/Cyclin E in kinase buffer+DTT (or buffer+DTT for blanks) in order to achieve 20 nM final concentration. After addition of each reagent, the test-plate is shaked. The plates are incubated 30 minute at 30° C. with a shaking at 650 rpm. At the end of the incubation, the plates are washed 3 times with 300 μl of PBS (without calcium and magnesium) per well. The incorporation of ^33P to the peptide is measured by scintillation counting.

Row | IC50 (CDK2/Cyclin E) | melting point | Compound
1 | 124 nM |  | COC(=O)c1ccc2nc(-c3cc(-c4ccncc4)n[nH]c3=O)[nH]c2c1 [Example 1, Methyl 2-(3-oxo-6-pyridin-4-yl-2,3-dihydropyridazin-4-yl)-1H-benzimidazole-5-carboxylate]
2 | 26 nM |  | O=c1[nH]nc(-c2ccncc2)cc1-c1nc2ccc(Cl)cc2[nH]1 [Example 5, 4-(6-Chloro-1H-benzimidazol-2-yl)-6-pyridin-4-yl-2H-pyridazin-3-one]
3 | 214 nM |  | O=c1[nH]nc(-c2ccncc2)cc1-c1nc2ccc(C(F)(F)F)cc2[nH]1 [Example 6, 4-(6-Trifluoromethyl-1H-benzimidazol-2-yl)-6-pyridin-4-yl-2H-pyridazin-3-one]
4 |  | > 30 °C (dec.) | CN1CCN(CCCNC(=O)c2ccc3nc(-c4cc(-c5ccncc5)n[nH]c4=O)[nH]c3c2)CC1 [Example 9, 2-(3-Oxo-6-pyridin-4-yl-2,3-dihydropyridazin-4-yl)-1H-benzimidazole-5-carboxylic acid [3-(4-methylpiperazin-1-yl)propyl]amide]
